Results: ChEMBL document CHEMBL3991601, “The target landscape of clinical kinase drugs” (Science, 2017)
pKd: −log10 of the molar value. Activity calls are given as the source filed them.

Assays:
[1] = target: Dual specificity protein kinase CLK4 (Homo sapiens, UniProt Q9HAZ1)
[2] = target: Cyclin-dependent kinase 2 (Homo sapiens, UniProt P24941)
[3] = target: T1, Phosphatidylinositol 5-phosphate 4-kinase type-2 alpha (Homo sapiens, UniProt P48426)
T1 sequence (P48426 whole entry): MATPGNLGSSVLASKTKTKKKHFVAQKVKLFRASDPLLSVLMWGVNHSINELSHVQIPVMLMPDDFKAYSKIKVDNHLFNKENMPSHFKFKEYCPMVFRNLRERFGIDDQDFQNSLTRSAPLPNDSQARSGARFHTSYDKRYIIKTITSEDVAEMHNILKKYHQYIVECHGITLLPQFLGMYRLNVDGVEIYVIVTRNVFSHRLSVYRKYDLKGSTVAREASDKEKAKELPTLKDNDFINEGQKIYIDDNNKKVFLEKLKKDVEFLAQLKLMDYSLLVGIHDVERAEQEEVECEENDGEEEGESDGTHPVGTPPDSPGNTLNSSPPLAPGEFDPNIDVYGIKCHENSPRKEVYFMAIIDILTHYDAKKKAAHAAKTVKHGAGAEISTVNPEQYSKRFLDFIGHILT

[4] = target: T2, Thyroid hormone receptor-associated protein 3 (Homo sapiens, UniProt Q9Y2W1)
T2 sequence (Q9Y2W1 whole entry): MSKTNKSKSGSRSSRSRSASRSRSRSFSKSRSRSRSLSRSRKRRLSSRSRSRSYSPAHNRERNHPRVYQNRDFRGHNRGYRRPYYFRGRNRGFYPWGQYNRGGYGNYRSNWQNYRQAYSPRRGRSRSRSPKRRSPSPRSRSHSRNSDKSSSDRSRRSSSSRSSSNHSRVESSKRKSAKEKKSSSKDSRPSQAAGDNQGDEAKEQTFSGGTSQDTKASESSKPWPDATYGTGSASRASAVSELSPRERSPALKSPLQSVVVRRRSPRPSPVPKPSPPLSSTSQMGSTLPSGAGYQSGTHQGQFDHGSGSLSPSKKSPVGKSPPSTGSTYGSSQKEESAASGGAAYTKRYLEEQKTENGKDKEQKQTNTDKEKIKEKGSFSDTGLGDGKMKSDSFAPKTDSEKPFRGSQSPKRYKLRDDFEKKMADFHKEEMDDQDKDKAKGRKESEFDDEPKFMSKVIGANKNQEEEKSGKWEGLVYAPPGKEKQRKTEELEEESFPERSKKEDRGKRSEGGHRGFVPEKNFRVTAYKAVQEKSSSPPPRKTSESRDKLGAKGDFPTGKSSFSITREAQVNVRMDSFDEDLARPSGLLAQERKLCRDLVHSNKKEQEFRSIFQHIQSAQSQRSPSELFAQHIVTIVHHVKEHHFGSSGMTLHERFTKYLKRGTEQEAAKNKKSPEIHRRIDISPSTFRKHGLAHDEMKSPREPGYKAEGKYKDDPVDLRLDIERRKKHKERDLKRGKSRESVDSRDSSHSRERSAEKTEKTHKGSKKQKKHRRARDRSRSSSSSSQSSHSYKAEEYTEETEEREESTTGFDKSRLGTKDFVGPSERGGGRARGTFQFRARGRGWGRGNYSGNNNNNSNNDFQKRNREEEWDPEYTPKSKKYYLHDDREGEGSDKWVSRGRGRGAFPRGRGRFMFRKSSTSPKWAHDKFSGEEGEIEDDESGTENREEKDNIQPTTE

[5] = target: Serine/threonine-protein kinase PLK1 (Homo sapiens, UniProt P53350)
[6] = target: T3, Cyclin-dependent kinase-like 5 (Homo sapiens, UniProt O76039)
T3 sequence (O76039 whole entry): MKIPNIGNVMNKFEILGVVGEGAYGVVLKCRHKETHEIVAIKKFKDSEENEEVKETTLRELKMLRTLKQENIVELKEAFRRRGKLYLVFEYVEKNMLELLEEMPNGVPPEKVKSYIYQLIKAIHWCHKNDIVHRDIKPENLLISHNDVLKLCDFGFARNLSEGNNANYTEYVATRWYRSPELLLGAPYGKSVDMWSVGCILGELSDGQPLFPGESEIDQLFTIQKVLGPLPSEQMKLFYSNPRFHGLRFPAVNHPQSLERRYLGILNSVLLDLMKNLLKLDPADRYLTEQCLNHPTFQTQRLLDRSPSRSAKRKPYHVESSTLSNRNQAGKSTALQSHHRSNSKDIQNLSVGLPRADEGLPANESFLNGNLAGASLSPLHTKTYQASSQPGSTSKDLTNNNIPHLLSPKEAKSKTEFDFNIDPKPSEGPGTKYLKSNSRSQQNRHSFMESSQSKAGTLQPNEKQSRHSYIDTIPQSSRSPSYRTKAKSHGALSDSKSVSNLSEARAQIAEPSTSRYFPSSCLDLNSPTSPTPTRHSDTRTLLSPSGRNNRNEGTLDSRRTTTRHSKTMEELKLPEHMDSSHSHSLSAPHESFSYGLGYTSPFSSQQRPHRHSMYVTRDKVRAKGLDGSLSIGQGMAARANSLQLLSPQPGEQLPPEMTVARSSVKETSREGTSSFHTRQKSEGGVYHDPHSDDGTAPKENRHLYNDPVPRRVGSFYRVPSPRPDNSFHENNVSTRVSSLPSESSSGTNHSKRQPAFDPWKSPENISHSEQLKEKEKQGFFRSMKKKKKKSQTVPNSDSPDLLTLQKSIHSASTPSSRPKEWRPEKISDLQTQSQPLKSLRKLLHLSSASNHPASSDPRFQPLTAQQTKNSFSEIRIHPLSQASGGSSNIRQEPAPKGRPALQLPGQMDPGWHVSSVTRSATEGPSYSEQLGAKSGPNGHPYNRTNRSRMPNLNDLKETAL

[7] = target: Guanine nucleotide-binding protein G(i) subunit alpha-2 (Homo sapiens, UniProt P04899)
[8] = target: Protein kinase C theta type (Homo sapiens, UniProt Q04759)
[9] = target: T4, UMP-CMP kinase (Homo sapiens, UniProt P30085)
T4 sequence (P30085 whole entry): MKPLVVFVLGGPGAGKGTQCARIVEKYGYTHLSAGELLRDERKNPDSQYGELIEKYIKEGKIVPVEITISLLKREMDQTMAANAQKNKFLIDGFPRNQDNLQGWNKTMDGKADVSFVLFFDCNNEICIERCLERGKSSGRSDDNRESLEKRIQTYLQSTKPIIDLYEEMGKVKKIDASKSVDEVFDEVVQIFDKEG
Further: in the data inactive means no Kd found up to 30 µM.

Chain of Protein kinase C theta type (Q04759 whole entry): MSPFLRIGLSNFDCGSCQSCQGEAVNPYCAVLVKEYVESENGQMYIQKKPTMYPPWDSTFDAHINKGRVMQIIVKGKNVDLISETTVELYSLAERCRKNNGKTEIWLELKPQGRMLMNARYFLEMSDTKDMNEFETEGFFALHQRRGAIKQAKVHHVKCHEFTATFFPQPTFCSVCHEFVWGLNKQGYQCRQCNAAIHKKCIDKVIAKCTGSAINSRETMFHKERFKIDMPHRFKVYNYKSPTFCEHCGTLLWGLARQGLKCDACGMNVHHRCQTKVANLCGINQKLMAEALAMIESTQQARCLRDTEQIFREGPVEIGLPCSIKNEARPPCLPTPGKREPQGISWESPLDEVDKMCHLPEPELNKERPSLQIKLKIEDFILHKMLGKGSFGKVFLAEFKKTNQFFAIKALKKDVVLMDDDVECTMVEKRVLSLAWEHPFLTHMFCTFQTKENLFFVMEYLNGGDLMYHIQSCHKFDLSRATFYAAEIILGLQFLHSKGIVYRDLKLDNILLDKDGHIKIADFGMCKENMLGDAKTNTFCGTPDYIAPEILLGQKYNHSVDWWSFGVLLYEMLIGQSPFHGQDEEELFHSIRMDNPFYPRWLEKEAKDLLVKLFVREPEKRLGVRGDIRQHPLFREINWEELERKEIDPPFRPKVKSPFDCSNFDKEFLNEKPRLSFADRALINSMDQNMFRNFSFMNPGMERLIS
Chain of Serine/threonine-protein kinase PLK1 (P53350 whole entry): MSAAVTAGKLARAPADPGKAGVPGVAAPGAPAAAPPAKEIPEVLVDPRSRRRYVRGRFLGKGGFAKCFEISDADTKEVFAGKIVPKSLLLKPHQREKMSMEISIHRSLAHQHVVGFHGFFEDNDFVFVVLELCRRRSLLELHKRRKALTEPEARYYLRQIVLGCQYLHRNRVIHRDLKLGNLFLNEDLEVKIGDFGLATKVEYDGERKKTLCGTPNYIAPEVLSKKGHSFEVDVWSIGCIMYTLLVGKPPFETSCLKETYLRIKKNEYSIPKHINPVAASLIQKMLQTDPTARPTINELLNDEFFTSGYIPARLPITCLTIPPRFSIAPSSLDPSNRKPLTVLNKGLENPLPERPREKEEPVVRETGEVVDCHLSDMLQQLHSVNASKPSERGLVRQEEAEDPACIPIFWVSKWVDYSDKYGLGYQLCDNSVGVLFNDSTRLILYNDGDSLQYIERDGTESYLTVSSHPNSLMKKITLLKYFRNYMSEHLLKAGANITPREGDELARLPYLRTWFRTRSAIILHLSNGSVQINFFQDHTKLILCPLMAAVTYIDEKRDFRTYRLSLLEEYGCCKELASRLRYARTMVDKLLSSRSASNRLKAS
Chain of Guanine nucleotide-binding protein G(i) subunit alpha-2 (P04899 whole entry): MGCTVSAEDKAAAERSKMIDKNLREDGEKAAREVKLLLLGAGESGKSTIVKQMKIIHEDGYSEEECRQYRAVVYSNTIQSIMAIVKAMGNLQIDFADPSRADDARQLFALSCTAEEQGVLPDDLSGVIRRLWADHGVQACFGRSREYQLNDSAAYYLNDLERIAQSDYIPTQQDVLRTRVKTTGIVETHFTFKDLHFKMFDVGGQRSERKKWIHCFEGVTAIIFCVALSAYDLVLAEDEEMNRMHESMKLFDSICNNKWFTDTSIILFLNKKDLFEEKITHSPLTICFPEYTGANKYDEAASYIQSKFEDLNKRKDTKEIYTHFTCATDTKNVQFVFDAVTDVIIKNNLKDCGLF
Chain of Dual specificity protein kinase CLK4 (Q9HAZ1 whole entry): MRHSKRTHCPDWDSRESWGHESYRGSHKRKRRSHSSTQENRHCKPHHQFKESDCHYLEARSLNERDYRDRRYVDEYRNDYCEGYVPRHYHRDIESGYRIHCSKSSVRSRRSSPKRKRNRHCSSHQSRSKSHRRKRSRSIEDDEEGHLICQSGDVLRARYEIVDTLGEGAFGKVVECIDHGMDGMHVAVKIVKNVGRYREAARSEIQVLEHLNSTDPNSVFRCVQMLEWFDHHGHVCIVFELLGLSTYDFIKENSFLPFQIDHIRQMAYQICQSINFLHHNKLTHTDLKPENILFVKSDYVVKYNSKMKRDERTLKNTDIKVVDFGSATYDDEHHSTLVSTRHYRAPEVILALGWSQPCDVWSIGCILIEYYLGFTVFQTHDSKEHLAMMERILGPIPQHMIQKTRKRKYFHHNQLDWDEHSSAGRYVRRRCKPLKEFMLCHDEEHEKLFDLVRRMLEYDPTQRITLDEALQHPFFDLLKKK

| SMILES | Kd [1] | Kd [2] | Kd [3] | Kd [4] | Kd [5] | Kd [6] | Kd [7] | Kd [8] | Kd [9] | pKd [5] | pKd [6] |
| --- | --- | --- | --- | --- | --- | --- | --- | --- | --- | --- | --- |
| Cc1ccc(S(=O)(=O)Nc2nc3ccccc3nc2Nc2ccc3nsnc3c2)cc1 | > 30 µM (inactive) | > 30 µM (inactive) | > 30 µM (inactive) | > 30 µM (inactive) | > 30 µM (inactive) | > 30 µM (inactive) | > 30 µM (inactive) | > 30 µM (inactive) | – | – | – |
| CN1CC[C@@H](c2c(O)cc(O)c3c(=O)cc(-c4ccccc4Cl)oc23)[C@@H]1CO | > 30 µM (inactive) | > 30 µM (inactive) | – | > 30 µM (inactive) | – | – | – | > 30 µM (inactive) | > 30 µM (inactive) | 7.68 | 7.62 |
| Cc1cc(-c2cc(O)ccc2Cl)cc2nnc(Nc3ccc(OCCN4CCCC4)cc3)nc12 | – | > 30 µM (inactive) | > 30 µM (inactive) | – | > 30 µM (inactive) | > 30 µM (inactive) | – | > 30 µM (inactive) | > 30 µM (inactive) | – | – |
| Cc1ccc(NC(=O)c2ccc(CN3CC[C@H](N(C)C)C3)c(C(F)(F)F)c2)cc1Nc1nccc(-c2cncnc2)n1 [BAFETINIB] | > 30 µM (inactive) | > 30 µM (inactive) | > 30 µM (inactive) | > 30 µM (inactive) | > 30 µM (inactive) | > 30 µM (inactive) | > 30 µM (inactive) | > 30 µM (inactive) | > 30 µM (inactive) | – | – |
| O=C(c1ccc(F)c(F)c1Nc1ccc(I)cc1F)N1CC(O)([C@@H]2CCCCN2)C1 [COBIMETINIB] | > 30 µM (inactive) | > 30 µM (inactive) | > 30 µM (inactive) | > 30 µM (inactive) | > 30 µM (inactive) | > 30 µM (inactive) | – | > 30 µM (inactive) | – | – | – |
| CO[C@H]1C[C@@H]2CC[C@@H](C)[C@@](O)(O2)C(=O)C(=O)N2CCCC[C@H]2C(=O)O[C@H]([C@H](C)C[C@@H]2CC[C@@H](OCCO)[C@H](OC)C2)CC(=O)[C@H](C)/C=C(\C)[C@@H](O)[C@@H](OC)C(=O)[C@H](C)C[C@H](C)/C=C/C=C/C=C/1C [EVEROLIMUS] | > 30 µM (inactive) | > 30 µM (inactive) | > 30 µM (inactive) | > 30 µM (inactive) | > 30 µM (inactive) | – | > 30 µM (inactive) | > 30 µM (inactive) | > 30 µM (inactive) | – | – |
| CC[C@H](Nc1ncnc2[nH]cnc12)c1nc2cccc(F)c2c(=O)n1-c1ccccc1 [IDELALISIB] | > 30 µM (inactive) | > 30 µM (inactive) | > 30 µM (inactive) | > 30 µM (inactive) | > 30 µM (inactive) | > 30 µM (inactive) | > 30 µM (inactive) | > 30 µM (inactive) | – | – | – |
| Cc1ccc(-n2nc(C(C)(C)C)cc2NC(=O)NCc2cc(F)ccc2Oc2ccc3c(cnn3CCO)c2)cc1 [PEXMETINIB] | > 30 µM (inactive) | > 30 µM (inactive) | > 30 µM (inactive) | – | > 30 µM (inactive) | – | > 30 µM (inactive) | > 30 µM (inactive) | > 30 µM (inactive) | – | – |
| CNC(=O)c1cc(Oc2ccc(NC(=O)Nc3ccc(Cl)c(C(F)(F)F)c3)c(F)c2)ccn1 [REGORAFENIB] | > 30 µM (inactive) | > 30 µM (inactive) | > 30 µM (inactive) | – | > 30 µM (inactive) | – | > 30 µM (inactive) | > 30 µM (inactive) | > 30 µM (inactive) | – | – |
| CC(C)Nc1cc(-c2c[nH]c(C(=O)N[C@H](CO)c3cccc(Cl)c3)c2)c(Cl)cn1 [ULIXERTINIB] | > 30 µM (inactive) | > 30 µM (inactive) | > 30 µM (inactive) | – | > 30 µM (inactive) | > 30 µM (inactive) | – | > 30 µM (inactive) | > 30 µM (inactive) | – | – |
| CCCS(=O)(=O)Nc1ccc(F)c(C(=O)c2c[nH]c3ncc(-c4ccc(Cl)cc4)cc23)c1F [VEMURAFENIB] | > 30 µM (inactive) | > 30 µM (inactive) | > 30 µM (inactive) | > 30 µM (inactive) | > 30 µM (inactive) | – | > 30 µM (inactive) | > 30 µM (inactive) | > 30 µM (inactive) | – | – |
| CC[C@@H]1C(=O)N(C)c2cnc(Nc3ccc(C(=O)N[C@H]4CC[C@H](N5CCN(CC6CC6)CC5)CC4)cc3OC)nc2N1C(C)C [VOLASERTIB] | > 30 µM (inactive) | > 30 µM (inactive) | > 30 µM (inactive) | > 30 µM (inactive) | > 30 µM (inactive) | – | > 30 µM (inactive) | > 30 µM (inactive) | > 30 µM (inactive) | – | – |

Further lines, with some results ahead:

| Kd [1] | Kd [2] | Kd [3] | Kd [4] | Kd [5] | Kd [6] | Kd [7] | Kd [8] | Kd [9] | SMILES | pKd [5] | pKd [6] |
| --- | --- | --- | --- | --- | --- | --- | --- | --- | --- | --- | --- |
| > 30 µM (inactive) | – | > 30 µM (inactive) | > 30 µM (inactive) | > 30 µM (inactive) | > 30 µM (inactive) | – | > 30 µM (inactive) | > 30 µM (inactive) | COc1cc(CCc2cc(NC(=O)c3ccc(N4C[C@@H](C)N[C@@H](C)C4)cc3)n[nH]2)cc(OC)c1 [AZD-4547] | – | – |
| > 30 µM (inactive) | > 30 µM (inactive) | – | > 30 µM (inactive) | > 30 µM (inactive) | – | > 30 µM (inactive) | > 30 µM (inactive) | > 30 µM (inactive) | Cc1cc([C@@H](C)Nc2ccccc2C(=O)O)c2nc(N3CCOCC3)cc(=O)n2c1 [AZD-6482] | – | – |
| > 30 µM (inactive) | > 30 µM (inactive) | > 30 µM (inactive) | > 30 µM (inactive) | > 30 µM (inactive) | > 30 µM (inactive) | > 30 µM (inactive) | > 30 µM (inactive) | – | Cn1cc(-c2ccc3nnc(C(F)(F)c4ccc5ncccc5c4)n3n2)cn1 [JNJ-38877605] | – | – |
| – | > 30 µM (inactive) | > 30 µM (inactive) | > 30 µM (inactive) | > 30 µM (inactive) | > 30 µM (inactive) | > 30 µM (inactive) | > 30 µM (inactive) | > 30 µM (inactive) | CN1CCC(CNc2ccc3ncc(-c4cccc(OC(F)(F)F)c4)n3n2)CC1 [SGI-1776] | – | – |
| > 30 µM (inactive) | – | – | > 30 µM (inactive) | > 30 µM (inactive) | > 30 µM (inactive) | > 30 µM (inactive) | > 30 µM (inactive) | – | O=C(Nc1ccc(-c2ccnc(Nc3ccc(N4CCOCC4)cc3)n2)cc1)C1CCCN1 (stereo unspecified) [XL-019] | – | – |
